From patent US11174282B2, “Aminosteroid derivatives and process for producing same” (UNIVERSITÉ LAVAL, priority 2016, dated 2021)
“Also recorded” adds a separate entry of the source. Where two headings read alike, the source gives them in different places.

Legend:
[1] = test system: Human pancreas cancer cells (PANC-1); test: Cell proliferation assay (MTS), PANC-1; type: cell-based; conditions: for IC50: read-out: IC50 (μM) Pancreatic cancer PANC-1; for antiproliferative activity relative to RM-133, PANC-1: fold of RM-133 activity (>1 = more active)
Method: (§1) The different aminosteroids were dissolved in methanol (50 mM).

[2] = test system: primary ovary normal cells; test: cells; type: cell-based, human; conditions: for Selectivity Index Ovary: IC50 normal cells/IC50 cancer cells (primary ovary / OVCAR-3)
Method: as §1

[3] = test system: HL-60 (acute promyelocytic leukemia) cells; test: Cell proliferation assay (MTS), HL-60; type: cell-based; conditions: for IC50: read-out: IC50 (μM) HL-60 (leukemia); for antiproliferative activity relative to RM-133, HL-60: fold of RM-133 activity (>1 = more active)
Method: as §1

[4] = test system: OVCAR-3 cells (ovarian cancer); test: Cell proliferation assay (MTS), OVCAR-3; type: cell-based; conditions: for IC50: read-out: IC50 (μM) Ovarian cancer OVCAR-3; for antiproliferative activity relative to RM-133, OVCAR-3: fold of RM-133 activity (>1 = more active)
Method: as §1

[5] = human, 1 h, 10 μM, pH 7.4
Method: (§2) Assays were performed at 37° C. for 1 h, with or without 10 mM NADPH in the presence of 40 μg of human liver microsome from Corning (Melrose, Mass., USA) and 10 μM of aminosteroid substrate in a final 100 μL volume of 50 mM Tris buffer (pH 7.4) supplemented with 10 mM MgCl2. Assays were ended by adding 100 μL of MeOH followed by centrifugation at 13,000 g for 10 min to obtain a pellet of proteins. The supernatant of 2 assays was pooled and submitted to HPLC-MS analysis (Shimadzu LCMS-2020 APCI, Alltima HP C18 (250 mm×4.6 mm, 5 μm) column, MeOH:H2O gradient). Remaining substrate (expressed in %) was calculated by dividing the area under the curve of the substrate for the assays without NADPH by the area under the curve of the substrate for the assays with NADPH and multiplied by 100. Values represent the average of 2 independent experiments.

[6] = test system: renal proximal tubule epithelial cells (RPTEC); test: Toxicity on normal cells (MTS), RPTEC; type: cell-based, human
Method: as §1

[7] = test system: primary pancreas normal cells; test: Toxicity on normal cells (MTS), primary pancreas; type: cell-based, human; conditions: for Selectivity Index Pancreas: IC50 normal cells/IC50 cancer cells (primary pancreas / PANC-1); for IC50: human normal cells
Method: as §1

[8] = test system: primary pancreas, primary ovary and renal proximal tubule epithelial cells (RPTEC); test: Toxicity on the normal cell types tested; conditions: higher concentration tested 50 μM
Method: Human primary epithelial pancreas and ovary cells were obtained from Cedarlane (Chicago, Ill., USA) and were cultured in the manufacturer recommended medium. Human renal proximal tubule epithelial cells (RPTEC) were obtained from Lonza (Mississauga, ON, Canada) and were maintained in DMEM-F12 supplemented as previously reported [4]. The cell lines were all maintained under a 5% CO2 humidified atmosphere at 37° C. and the culture medium was changed every 2 to 3 days and the cells were split once a week to maintain cell propagation.
The cell proliferation assay was performed using 3-(4,5-dimethylthiazol-2-yl)-5-(3-carboxymethoxyphenyl)2-(4-sulfophenyl)-2H-tetrazolium (MTS) (Cell Titer 96 Aqueous, Promega, Nepean, ON, Canada) as previously described [3, 4, 5]. Briefly, cells were plated in triplicate in 96-well plates (1×10^4 cells/well) in appropriate culture medium (total of 90 μL). Before each treatment, the cells were incubated at 37° C. in a 5% CO2 humidified atmosphere for 24 h. The different aminosteroids were dissolved in methanol (50 mM). The stock solutions were diluted at multiple concentrations with culture media in order to obtain the desired final concentration followed by the addition of 10 μL to each well, and the mixture incubated for 3 days. Following treatment, MTS (10 μL) was added to each well and the mixture was incubated for 4 h. […] Selectivity was calculated by dividing the IC50 obtained for a specific primary cell by the IC50 for the related cancer cell line.

[9] = Metabolic stability assay, human liver microsomes; conditions: 1 h; for increased metabolic stability relative to RM-133: human hepatic microsomes
Method: as §2

[10] = test system: PANC-1, BxPC-3, Hs766, OVCAR-3, Caov3, SKOV3, MCF-7, T-47D and LAPC-4 cell lines; test: Cytotoxic activity screening at 5 and 1 μM on cancer cell lines; conditions: independently of the cancer cell line tested, result in words
Method: The cell proliferation assay was performed using 3-(4,5-dimethylthiazol-2-yl)-5-(3-carboxymethoxyphenyl)2-(4-sulfophenyl)-2H-tetrazolium (MTS) (Cell Titer 96 Aqueous, Promega, Nepean, ON, Canada) as previously described [3, 4, 5]. Briefly, cells were plated in triplicate in 96-well plates (1×10^4 cells/well) in appropriate culture medium (total of 90 μL). Before each treatment, the cells were incubated at 37° C. in a 5% CO2 humidified atmosphere for 24 h. The different aminosteroids were dissolved in methanol (50 mM). The stock solutions were diluted at multiple concentrations with culture media in order to obtain the desired final concentration followed by the addition of 10 μL to each well, and the mixture incubated for 3 days. Following treatment, MTS (10 μL) was added to each well and the mixture was incubated for 4 h.

[11] = test system: LAPC-4 (prostate cancer) cells; test: Cell proliferation assay (MTS), LAPC-4; type: cell-based; conditions: read-out: IC50 (μM) Prostate cancer LAPC-4
Method: as §1

[12] = test system: PC-3 (prostate cancer) cells; test: Cell proliferation assay (MTS), PC-3; type: cell-based; conditions: 72 h; 3 days treatment, MTS; read-out: IC50 (μM) Prostate cancer PC-3
Method: as §1

[13] = test system: LNCaP (prostate cancer) cells; test: Cell proliferation assay (MTS), LNCaP; type: cell-based; conditions: Homo sapiens, 72 h, 3 days treatment, MTS, read-out: IC50 (μM) Prostate cancer LNCaP
Method: as §1

[14] = test system: T-47D breast cancer cell line; test: Cell proliferation assay (MTS), T-47D; type: cell-based; conditions: Homo sapiens, T47D, 72 h; 3 days treatment, MTS
Method: as §1

[15] = test system: MCF-7 breast cancer cells; test: Cell proliferation assay (MTS), MCF-7; type: cell-based, human; conditions: Homo sapiens, MCF7, 72 h, 3 days treatment
Method: as §1

[16] = human normal cells, read-out: IC50 (μM) Primary Ovary (normal cells)
[17] = Homo sapiens, HL-60, 72 h, 3 days treatment, MTS
[18] = Homo sapiens, OVCAR-3, 72 h, 3 days treatment, MTS
[19] = normal (kidney) cells, read-out: IC50 (μM) RPTEC (normal cells)

In the case of C#C[C@@]1(O)CC[C@H]2[C@@H]3CC[C@H]4C[C@H](OC(=O)N(C)C)[C@@H](N5CCN(C(=O)[C@@H]6CCCN6C(=O)c6ccc7ccccc7n6)CC5)C[C@]4(C)[C@H]3CC[C@@]21C [3 (3-carbamate), (2β,3α,5α,17α)-17-hydroxy-2-{4-[1-(quinolin-2-ylcarbonyl)-L-prolyl]piperazin-1-yl}pregn-20-yn-3-yl dimethylcarbamate], the IC50 ([1]; Homo sapiens, PANC-1, 72 h, 3 days treatment, MTS) is reported as 9.99 µM, the “antiproliferative activity relative to RM-133, PANC-1” value [1] is reported as 0.7 fold and the “Selectivity Index Ovary” value [2] is reported as >2.5. For the same molecule, the IC50 [2, 16] was > 50 µM, the IC50 [3, 17] was 7.95 µM and the “antiproliferative activity relative to RM-133, HL-60” value [3] was 0.9 fold. For the same molecule, the IC50 [4, 18] was 20 µM, the “antiproliferative activity relative to RM-133, OVCAR-3” value [4] was 0.3 fold and the “increased metabolic stability relative to RM-133” value ([5]; microsomes) was 5.9 fold. The IC50 ([6]; Homo sapiens, RPTEC, normal (kidney) cells, read-out: IC50 (μM) RPTEC (normal cells)) was 24.2 µM, the “Selectivity Index Pancreas” value [7] was >5.0 and the IC50 [7] was > 50 µM. The “toxicity on the normal cell types tested” value [8] was “very low toxicity; also recorded: no cytotoxicity was observed”.

For C#C[C@@]1(O)CC[C@H]2[C@@H]3CC[C@H]4C[C@H](OC(C)=O)[C@H](N5CCN(C(=O)[C@@H]6CCCN6C(=O)c6ccc7ccccc7n6)CC5)C[C@]4(C)[C@H]3CC[C@@]21C [4 (3-ester), (2α,3α,5α,17α)-17-hydroxy-2-{4-[1-(quinolin-2-ylcarbonyl)-L-prolyl]piperazin-1-yl}pregn-20-yn-3-yl acetate], the IC50 ([1]; 3 days treatment, MTS) was 6.24 µM, the “antiproliferative activity relative to RM-133, PANC-1” value [1] was 1.1 fold and the “Selectivity Index Ovary” value [2] was 11.0. For the same molecule, the IC50 [2, 16] was 42 µM, the “increased metabolic stability relative to RM-133” value [9] was 3.1 fold and the IC50 ([3]; 3 days treatment, MTS) was 6.44 µM. For the same molecule, the “antiproliferative activity relative to RM-133, HL-60” value [3] was 1.1 fold, the IC50 ([4]; 3 days treatment, MTS) was 3.83 µM and the “antiproliferative activity relative to RM-133, OVCAR-3” value [4] was 1.4 fold. For the same molecule, the IC50 [6, 19] was 32.1 µM, the “Selectivity Index Pancreas” value [7] was 4.8 and the IC50 [7] was 30.1 µM. For the same molecule, the “toxicity on the normal cell types tested” value [8] was “very low toxicity”.

For C#C[C@@]1(O)CC[C@H]2[C@@H]3CCc4cc(C(C)O)c(N5CCN(C(=O)[C@@H]6CCCN6C(=O)c6ccc7ccccc7n6)CC5)cc4[C@H]3CC[C@@]21C (stereo partly drawn) [Compound 18, {4-[(17β)-17-ethynyl-17-hydroxy-3-(1-hydroxyethyl)estra-1,35(10)-trien-2-yl]piperazin-1-yl}[(2S)-1-(quinolin-2-ylcarbonyl)pyrrolidin-2-yl]methanone], the “metabolic stability (% of remaining compound)” value ([9]; 10 μM, 40 μg human liver microsomes, result in words) was “slightly lower values” and the “cytotoxic activity in screening (cell survival)” value (shortened to “cytotoxic activity in screening”) [10] was “only slight differences in their respective levels of activity”.

With C#C[C@@]1(O)CC[C@H]2[C@@H]3CCc4cc(OC(=O)N(CC)CC)c(N5CCN(C(=O)[C@@H]6CCCN6C(=O)c6ccc7ccccc7n6)CC5)cc4[C@H]3CC[C@@]21C [Compound 2, (17β)-17-ethynyl-17-hydroxy-2-{4-[1-(quinolin-2-ylcarbonyl)-L-prolyl]piperazin-1-yl}estra-1,3,5(10)-trien-3-yl diethylcarbamate] the “cytotoxic activity in screening” value [10] was “marked weaker cytotoxic activity; also recorded: significant losses of activity”.

With C#C[C@@]1(O)CC[C@H]2[C@@H]3CCc4cc(OC(=O)N(C)C)c(N5CCN(C(=O)[C@@H]6CCCN6C(=O)c6ccc7ccccc7n6)CC5)cc4[C@H]3CC[C@@]21C [Compound 1, (17β)-17-ethynyl-17-hydroxy-2-{4-[1-(quinolin-2-ylcarbonyl)-L-prolyl]piperazin-1-yl}estra-1,3,5(10)-trien-3-yl dimethylcarbamate] the IC50 ([1]; Homo sapiens, PANC-1, 72 h) was 9.6 µM, the IC50 ([2]; Homo sapiens, read-out: IC50 (μM) Normal Cells Ovary) was ≥ 50 µM and the IC50 ([11]; Homo sapiens, LAPC4, 72 h) was 1.3 µM. For the same molecule, the IC50 ([3]; Homo sapiens, HL-60, 72 h) was 4.3 µM, the IC50 ([4]; Homo sapiens, OVCAR-3, 72 h) was 6.4 µM and the IC50 ([6]; Homo sapiens, RPTEC, read-out: IC50 (μM) Normal Cells Kidney) was ≥ 50 µM. For the same molecule, the “cytotoxic activity in screening” value [10] was “only slight differences in their respective levels of activity”.

In the case of C#C[C@@]1(O)CC[C@H]2[C@@H]3CCc4cc(OC(C)=O)c(N5CCN(C(=O)[C@@H]6CCCN6C(=O)c6ccc7ccccc7n6)CC5)cc4[C@H]3CC[C@@]21C [Compound 3, (17β)-17-ethynyl-17-hydroxy-2-{4-[1-(quinolin-2-ylcarbonyl)-L-prolyl]piperazin-1-yl}estra-1,3,5(10)-trien-3-yl acetate], the IC50 ([2]; relative toxicity on human normal cells, read-out: IC50 (μM) Normal Cells Ovary) is reported as ≥ 50 µM, the IC50 ([11]; 3 days treatment, MTS) is reported as 0.6 µM and the IC50 ([11]; Homo sapiens, LAPC4, 72 h, 3 days treatment, MTS) is reported as 0.5 ± 0.4 µM. It also gave an IC50 [3, 17] of 4.3 µM, an IC50 [12] of 1.4 ± 0.3 µM and an IC50 [13] of 0.8 ± 0.3 µM. For the same molecule, the IC50 ([4]; 3 days treatment, MTS) was 3.4 µM, the IC50 [4, 18] was 3.9 ± 0.4 µM and the “phenolic metabolite RM-581-OH (stability of potential prodrugs to hydrolysis)” value [5] was “no trace of the phenolic metabolite RM-581-OH could be observed”. The IC50 [14] was 0.4 ± 0.2 µM, the IC50 ([6]; Homo sapiens, RPTEC, relative toxicity on human normal cells, read-out: IC50 (μM) Normal Cells Kidney) was ≥ 50 µM and the IC50 [15] was 1.4 ± 0.1 µM. The “toxicity on the normal cell types tested” value [8] was “did not trigger any loss of cell viability even at concentrations as high as 50 μM”.

In the case of C#C[C@]1(OC(C)=O)CC[C@H]2[C@@H]3CC[C@H]4C[C@H](OC(C)=O)[C@@H](N5CCN(C(=O)[C@@H]6CCCN6C(=O)c6ccc7ccccc7n6)CC5)C[C@]4(C)[C@H]3CC[C@@]21C [5 (3,17-diester), (2β,3α,5α,17α)-2-{4-[1-(quinolin-2-ylcarbonyl)-L-prolyl]piperazin-1-yl}pregn-20-yne-3,17-diyl diacetate], the IC50 ([1]; 3 days treatment, MTS) is reported as 25 µM, the “antiproliferative activity relative to RM-133, PANC-1” value [1] is reported as 0.3 fold and the IC50 [2, 16] is reported as 25.4 µM. The “increased metabolic stability relative to RM-133” value [9] was 3.5 fold, the IC50 ([3]; 3 days treatment, MTS) was 6.44 µM and the “antiproliferative activity relative to RM-133, HL-60” value [3] was “activity similar to RM-133”. For the same molecule, the IC50 ([4]; 3 days treatment, MTS) was 13.1 µM, the “antiproliferative activity relative to RM-133, OVCAR-3” value [4] was 0.4 fold and the IC50 [6, 19] was 45.5 µM. The IC50 [7] was 16.6 µM and the “toxicity on the normal cell types tested” value [8] was “increased toxicity relative to the mono-ester derivative 4”.

With C#Cc1cc2c(cc1N1CCN(C(=O)[C@@H]3CCCN3C(=O)c3ccc4ccccc4n3)CC1)[C@H]1CC[C@@]3(C)[C@@H](CC[C@@]3(O)C#C)[C@@H]1CC2 [Compound 17a, {4-[(17β)-3,17-diethynyl-17-hydroxyestra-1,3,5(10)-trien-2-yl]piperazin-1-yl}[(2S)-1-(quinolin-2-ylcarbonyl)pyrrolidin-2-yl]methanone] the “cytotoxic activity in screening” value [10] was “only slight differences in their respective levels of activity”.
